Results as given in patent US9930890B2 (priority 2010, dated 2018).

Legend:
Plasmopara viticola = assay: Plasmopara test (grapevine)/protective; format: in vivo; conditions: grapevine young plants, protective spray, active ingredient concentration 10 ppm, evaluation 6 days after inoculation; 0% = control, 100% = no infection
Experimental: Plasmopara Test (Grapevine)/Protective
To produce an appropriate active ingredient formulation, 1 part by weight of active ingredient is mixed with the specified amounts of solvent and emulsifier, and the concentrate is diluted with water to the desired concentration.
To test for protective efficacy, young plants are sprayed with the active ingredient formulation at the stated application rate. After the spray coating has dried on, the plants are inoculated with an aqueous spore suspension of Plasmopara viticola and then remain in an incubation cabin at approx. 20° C. and 100% relative air humidity for 1 day. Subsequently, the plants are placed in a greenhouse at approx. 21° C. and approx. 90% air humidity for 4 days. The plants are then moistened and placed in an incubation cabin for 1 day.
Evaluation follows 6 days after the inoculation. 0% means an efficacy which corresponds to that of the control, whereas an efficacy of 100% means that no infection is observed.
In this test, the following inventive compounds show, at an active ingredient concentration of 10 ppm, an efficacy of 70% or more: […]

[1] = for logp [a]: pH 2.7; for logp [b]: pH 7.8
Phytophthora infestans = format: in vivo; conditions: tomato plants, protective spray, active ingredient concentration 100 ppm, evaluation 7 days after inoculation; 0% = control, 100% = no infection
Peronospora brassicae = assay: Peronospora test (oilseed rape seeds)/seed treatment; format: in vivo; conditions: seed treatment, dose 50 g/dt, infected leaf area per plant after 7 days incubation, 0% = control, 100% = no disease
Experimental: Peronospora Test (Oilseed Rape Seeds)/Seed Treatment
The test was conducted under greenhouse conditions.
Oilseed rape seeds treated with an inventive active compound or a combination of inventive active compounds dissolved in N-methyl-2-pyrrolidone and diluted with water to the desired dose were sown in 6*6 cm vessels. The vessels contain 4 cm of a 1:1 mixture of steam-treated field soil and sand. The plants grew at 10° C.
14-day-old plants were inoculated with an aqueous spore suspension of Peronospora brassicae. The vessels containing the plants were incubated in a greenhouse at a temperature of 15° C. and a relative air humidity of 100% for 7 days.
The assessment of the test included the evaluation of the infected leaf area per plant. 0% means an efficiency corresponding to that of the control, while an efficiency of 100% means that no disease is observed.

CON=Cc1ccccc1C1CC(c2csc(C3CCN(C(=O)Nc4cc(Cl)ccc4C)CC3)n2)=NO1 (stereo not shown) [I-41, N-(5-Chloro-2-methylphenyl)-4-[4-(5-{2-[(methoxyimino)methyl]phenyl}-4,5-dihydro-1,2-oxazol-3-yl)-1,3-thiazol-2-yl]piperidine-1-carboxamide]
Eff. % (Plasmopara viticola): 81% | chromatographic logP (physchem; pH 2.7): 3.95

Cc1cc(C(F)(F)F)nn1CC(=O)N1CCC(c2nc(C3=NOC(c4ccccc4OS(C)(=O)=O)C3)cs2)CC1 (racemic) [I-62]
Eff. % (Plasmopara viticola): 100% | logp [a] [1]: 3.07[a], | logp [b] [1]: 2.98[b] | Eff. % (Phytophthora infestans): 89% | Eff. % (Peronospora brassicae): 90%

CC(C)(C)OC(=O)Nc1ccc(C2CC(c3csc(C4CCN(C(=O)Cn5nc(C(F)F)cc5C(F)F)CC4)n3)=NO2)cc1 (stereo not shown) [I-17, tert-Butyl (4-{3-[2-(1-([3,5-bis(difluoromethyl)-1H-pyrazol-1-yl]acetyl}piperidin-4-yl)-1,3-thiazol-4-yl]-4,5-dihydro-1,2-oxazol-5-yl)phenyl)carbamate]
chromatographic logP (physchem; pH 2.7): 3.45 | chromatographic logP (physchem; pH 7.8): 3.46

Cc1cc(C(F)(F)F)nn1CC(=O)N1CCC(c2nc(C3=NOC(c4ccccc4C=NO)C3)cs2)CC1 (mixture of isomers) [I-38]
Eff. % (Plasmopara viticola): 95% | Eff. % (Phytophthora infestans): 100% | Eff. % (Peronospora brassicae): 86%

O=C(Cn1nc(C(F)F)cc1C(F)F)N1CCC(c2nc(C3=NOC(c4ccccc4C=NO)C3)cs2)CC1 (mixture of isomers) [I-4]
Eff. % (Plasmopara viticola): 100% | Eff. % (Phytophthora infestans): 100% | Eff. % (Peronospora brassicae): 92%

CS(=O)(=O)Oc1ccccc1C1CC(c2csc(C3CCN(C(=O)Cn4nc(C(F)F)cc4C(F)F)CC3)n2)=NO1 (stereo not shown) [I-124]
Eff. % (Plasmopara viticola): 100% | logp [a] [1]: 2.86[a], | logp [b] [1]: 2.86[b] | Eff. % (Phytophthora infestans): 100% | Eff. % (Peronospora brassicae): 100%

CCS(=O)(=O)Oc1ccccc1C1CC(c2csc(C3CCN(C(=O)Cn4nc(C(F)F)cc4C(F)F)CC3)n2)=NO1 (stereo not shown) [I-65]
Eff. % (Plasmopara viticola): 100% | logp [a] [1]: 3.1[a], | logp [b] [1]: 3.09[b] | Eff. % (Phytophthora infestans): 100% | Eff. % (Peronospora brassicae): 90%

Cc1cc(C(F)(F)F)nn1CC(=O)N1CCC(c2nc(C3=NOC(c4ccccc4OS(=O)(=O)C4CC4)C3)cs2)CC1 (racemic) [I-61]
Eff. % (Plasmopara viticola): 100% | logp [a] [1]: 3.29[a], | logp [b] [1]: 3.31[b] | Eff. % (Phytophthora infestans): 89% | Eff. % (Peronospora brassicae): 90%

C[Si](C)(C)C#CCOc1ccccc1C1CC(c2csc(C3CCN(C(=O)Cn4nc(C(F)F)cc4C(F)F)CC3)n2)=NO1 (stereo not shown) [I-1, 2-[3,5-Bis(difluoromethyl)-1H-pyrazol-1-yl]-1-(4-{4-[5-(2-{[3-(trimethylsilyl)prop-2-yn-1-yl]oxy}phenyl)-4,5-dihydro-1,2-oxazol-3-yl]-1,3-thiazol-2-yl}piperidin-1-yl)ethanone]
chromatographic logP (physchem; pH 2.7): 4.71 | chromatographic logP (physchem; pH 7.8): 4.58

CON=Cc1cccc(F)c1C1CC(c2csc(C3CCN(C(=O)Cn4nc(C(F)F)cc4C(F)F)CC3)n2)=NO1 (mixture of isomers) [I-60]
Eff. % (Plasmopara viticola): 100% | logp [a] [1]: 3.49[a], | logp [b] [1]: 3.38[b] | Eff. % (Phytophthora infestans): 84% | Eff. % (Peronospora brassicae): 95%

CON=C(C)c1cccc(C2CC(c3csc(C4CCN(C(=O)Cn5nc(C(F)(F)F)cc5C)CC4)n3)=NO2)c1 (mixture of isomers) [I-3]
Eff. % (Plasmopara viticola): 97% | logp [a] [1]: 3.7[a] | Eff. % (Phytophthora infestans): 100%

C#CCOCc1ccccc1C1CC(c2csc(C3CCN(C(=O)Cn4nc(C(F)(F)F)cc4C)CC3)n2)=NO1 (racemic) [I-46]
Eff. % (Plasmopara viticola): 94% | logp [a] [1]: 3.43[a] | Eff. % (Phytophthora infestans): 94%

CC(=O)OCc1ccccc1C1CC(c2csc(C3CCN(C(=O)Cn4nc(C(F)(F)F)cc4C)CC3)n2)=NO1 (racemic) [I-47]
Eff. % (Plasmopara viticola): 90% | logp [a] [1]: 3.31[a] | Eff. % (Phytophthora infestans): 94%

Cc1cc(C(F)(F)F)nn1CC(=O)N1CCC(c2nc(C3=NOC(c4ccccc4OCC#N)C3)cs2)CC1 (stereo not shown) [I-140]
Eff. % (Plasmopara viticola): 100% | logp [a] [1]: 2.97[a], | logp [b] [1]: 2.98[b] | Eff. % (Phytophthora infestans): 84%

Cc1cc(C(F)(F)F)nn1CC(=O)N1CCC(c2nc(C3=NOC(c4c(F)cccc4OCC#N)C3)cs2)CC1 (stereo not shown) [I-86]
Eff. % (Plasmopara viticola): 99% | logp [a] [1]: 3.05[a], | logp [b] [1]: 2.94[b] | Eff. % (Phytophthora infestans): 75%

C#CCN(C=O)c1ccccc1C1CC(c2csc(C3CCN(C(=O)Cn4nc(C(F)F)cc4C(F)F)CC3)n2)=NO1 (stereo not shown) [I-117]
Eff. % (Plasmopara viticola): 96% | logp [a] [1]: 2.65[a], | logp [b] [1]: 2.67[b] | Eff. % (Phytophthora infestans): 79%

CON=Cc1ccccc1C1CC(c2csc(C3CCN(C(=O)Cn4nc(C(F)F)cc4C(F)F)CC3)n2)=NO1 (stereo not shown) [I-26, 2-{3-[2-(1-{[3,5-Bis(difluoromethyl)-1H-pyrazol-1-yl]acetyl}piperidin-4-yl)-1,3-thiazol-4-yl]-4,5-dihydro-1,2-oxazol-5-yl}benzaldehyde O-methyloxime]
Eff. % (Plasmopara viticola): 100% | chromatographic logP (physchem; pH 2.7): 3.59

O=C(Cn1nc(C(F)F)cc1C(F)F)N1CCC(c2nc(C3=NOC(c4cc(F)ccc4OS(=O)(=O)C4CC4)C3)cs2)CC1 (stereo not shown) [I-84]
Eff. % (Plasmopara viticola): 100% | logp [a] [1]: 3.32[a], | logp [b] [1]: 3.35[b] | Eff. % (Phytophthora infestans): 90%
